Results from patent US20230054976A1, “METHODS FOR INHIBITION OF ALPHA-SYNUCLEIN mRNA USING SMALL MOLECULES” (The Scripps Research Institute, priority 2019, published 2023).

Tested on: SNCA mRNA
Assay: ASO-Bind-Map in cells (gapmer ASO, RT-qPCR)
Type: cell-based, human
Conditions: 200 nM, SH-SY5Y cells, RT-qPCR
Protocol: Mapping Synucleozid's binding site in cells with ASO-Bind-Map. SH-SY5Y cells were treated with vehicle (DMSO) or Synucleozid at 60% confluency overnight and were then transfected with a gapmer ASO (200 nM) with Lipofectamine RNAiMAX (Invitrogen) according to the manufacturer's instructions. Mock samples were generated by treating cells with transfection reagent lacking oligonucleotide. RNA extraction, cDNA synthesis and RT-qPCR were performed as described above after 48 h. Primers for SNCA mRNA in this experiment cover sequences upstream and downstream of the IRE; forward primer: [NT]; reverse primer [NT].

Row | Substance | reduction of SNCA mRNA levels by gapmer [%]
1 | 5′-CACTCCCAGT-3′ (2'-MOE phosphorothioate gapmer, further chemistry not given here) [ASO(1-10), reference compound] | ~50
2 | 5′-TCCTTTACACC-3′ (2'-MOE phosphorothioate gapmer, further chemistry not given here) [ASO(29-39), reference compound] | ~50
